# Laboratory results: patent US12084458B2, “Substituted pyridines, pyridazines, and pyrimidines as TYK2 inhibitors” (Sudo Biosciences Limited, priority 2021, dated 2024)
# Columns and labels:
# [1] = system: HEK-Blue IL-23 cells (IL-23-stimulated STAT3 SEAP reporter; TYK2 JH2); assay: HEK-Blue IL-23 SEAP reporter assay for profiling TYK2 pseudokinase (JH2) inhibition; format: cell-based; settings: 10 ng/mL human recombinant IL-23, SEAP reporter, read-out: IL23 (TYK2 inhibitory activity, IC50)
# Method in brief: (§1)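 SEAP read-out (QUANTI-Blue) after cytokine stimulation: IL-23 line given 10 ng/mL human IL-23 for 22-24 h; IFNα/β line given 1 ng/mL human IFNα for 16-18 h. Serially diluted compounds added 60 min before cytokine, to cells plated 20-22 h beforehand.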
# [2] = system: HEK-Blue IFNα/β cells (IFNα-stimulated STAT1 SEAP reporter; TYK2 JH2); assay: HEK-Blue IFNα/β SEAP reporter assay for profiling TYK2 pseudokinase (JH2) inhibition; format: cell-based; settings: Homo sapiens, HEK-Blue, 1 ng/mL human recombinant IFNα, read-out: IFNα (TYK2 inhibitory activity, IC50)
# Method in brief: as §1
# [3] = target: T1, TYK2 kinase domain (JH1) (Homo sapiens, UniProt P29597); assay: HTRF-based selectivity assay, TYK2 catalytic domain; format: biochemical; settings: recombinant catalytic domain, ATP 20 μM
# T1 construct: recombinant purified His or GST-tagged catalytic domain for each enzyme; made in house
# T1 sequence (P29597 897-1176 limits assumed): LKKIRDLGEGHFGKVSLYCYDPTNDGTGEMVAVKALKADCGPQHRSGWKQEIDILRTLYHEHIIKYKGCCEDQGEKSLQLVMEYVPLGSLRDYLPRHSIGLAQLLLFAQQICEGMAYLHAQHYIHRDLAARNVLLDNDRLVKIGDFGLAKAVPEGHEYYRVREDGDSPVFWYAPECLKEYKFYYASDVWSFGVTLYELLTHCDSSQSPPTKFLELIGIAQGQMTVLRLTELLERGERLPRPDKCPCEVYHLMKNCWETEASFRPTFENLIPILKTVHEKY
# Description: (§2) Example B-2: HTRF-Based Selectivity Assay
# (§3) The ability of compounds to inhibit the activity of JAK1, JAK2, JAK3 and TYK2 is measured using a recombinant purified His or GST-tagged catalytic domain for each enzyme (JAK1, JAK2 and TYK2 are generated in-house; JAK3 was purchased from Carna biosciences, Cat #08-046) in an HTRF format biochemical assay. The reactions employs a commercial peptide substrate from Cisbio (Cat #62TK0PEC). The basic assay protocol is as follows: first, 2.5 μL of diluted compounds (4×) in DMSO are dispensed into a 384-well Optiplate. Next, 2.5 μL of enzyme (final concentrations for enzymes are: TYK2—700 ng/mL, JAK1—80.6 ng/mL, JAK2—2.1 ng/mL and JAK3—171.8 ng/mL) is added and incubated at RT for 5-20 min. Finally, 5 μl of mixture of 2× ATP [Final concentration 20 μM for TYK2, 21.43 μM for JAK1, 14.7 μM for JAK2 and 2.12 μM for JAK3]+2× Substrate [Final concentration 217 nM for TYK2, 454.7 nM for JAK1, 200 nM for JAK2 and 257.4 nM for JAK3] is added to 384 well Optiplate. Composition of Kinase assay buffer used in the assay is as follows: HEPES 50 mM, EGTA 1 mM, MgCl2 10 mM, DTT 2 mM, Tween-20 0.01% and water. Then the plates are shaken and then incubated at 26.5° C. for 60 min.
# [4] = target: T2, JAK1 kinase domain (JH1) (Homo sapiens, UniProt P23458); assay: HTRF-based selectivity assay, JAK1 catalytic domain; format: biochemical; settings: recombinant catalytic domain, ATP 21.43 μM
# T2 construct: recombinant purified His or GST-tagged catalytic domain for each enzyme; made in house
# Description: as §2, §3
# [5] = target: T3, JAK2 kinase domain (JH1) (Homo sapiens, UniProt O60674); assay: HTRF-based selectivity assay, JAK2 catalytic domain; format: biochemical; settings: recombinant catalytic domain, ATP 14.7 μM
# T3 construct: recombinant purified His or GST-tagged catalytic domain for each enzyme; made in house
# Description: as §2, §3
# [6] = target: T4, JAK3 kinase domain (JH1) (Homo sapiens, UniProt P52333); assay: HTRF-based selectivity assay, JAK3 catalytic domain; format: biochemical; settings: recombinant catalytic domain, ATP 2.12 μM
# T4 construct: recombinant purified His or GST-tagged catalytic domain for each enzyme; purchased Carna biosciences 08-046
# Description: as §2, §3
# [7] = system: HEK-Blue IL-2 reporter cells (IL-2-stimulated STAT5 SEAP reporter); assay: HEK-Blue IL-2 SEAP reporter assay for determining selectivity; format: cell-based; settings: 4 ng/mL human recombinant IL-2
# Method in brief: (§4)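 Cells were plated for 20-22 h, then pretreated with serially diluted compound for 60 min. They were stimulated for 24 h with 4 ng/mL human recombinant IL-2 or 50 ng/mL human recombinant IFNγ, and SEAP induction was read with QUANTI-Blue.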
# [8] = system: HEK-Blue IFNγ reporter cells (IFNγ-stimulated STAT1 SEAP reporter); assay: HEK-Blue IFNγ SEAP reporter assay for determining selectivity; format: cell-based; settings: Homo sapiens, HEK-Blue, 50 ng/mL human recombinant IFNγ, read-out: IFN-γ (SEAP selectivity, IC50)
# Method in brief: as §4
# T2 sequence (P23458 875-1153 limits assumed): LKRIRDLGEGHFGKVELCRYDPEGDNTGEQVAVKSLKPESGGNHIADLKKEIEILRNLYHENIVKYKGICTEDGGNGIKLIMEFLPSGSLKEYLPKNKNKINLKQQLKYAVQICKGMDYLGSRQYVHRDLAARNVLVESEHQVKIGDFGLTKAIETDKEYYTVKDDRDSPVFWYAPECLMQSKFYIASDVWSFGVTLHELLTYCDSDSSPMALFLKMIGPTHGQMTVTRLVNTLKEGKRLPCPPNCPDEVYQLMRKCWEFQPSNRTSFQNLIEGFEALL
# T3 sequence (O60674 849-1124 limits assumed): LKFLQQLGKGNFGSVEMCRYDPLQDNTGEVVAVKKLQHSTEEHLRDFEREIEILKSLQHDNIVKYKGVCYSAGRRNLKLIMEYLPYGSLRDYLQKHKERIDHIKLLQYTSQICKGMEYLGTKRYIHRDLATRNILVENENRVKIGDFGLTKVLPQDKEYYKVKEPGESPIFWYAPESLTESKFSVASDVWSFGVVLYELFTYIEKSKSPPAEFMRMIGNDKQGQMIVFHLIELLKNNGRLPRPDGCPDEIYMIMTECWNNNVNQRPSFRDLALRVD
# T4 sequence (P52333 822-1111 limits assumed): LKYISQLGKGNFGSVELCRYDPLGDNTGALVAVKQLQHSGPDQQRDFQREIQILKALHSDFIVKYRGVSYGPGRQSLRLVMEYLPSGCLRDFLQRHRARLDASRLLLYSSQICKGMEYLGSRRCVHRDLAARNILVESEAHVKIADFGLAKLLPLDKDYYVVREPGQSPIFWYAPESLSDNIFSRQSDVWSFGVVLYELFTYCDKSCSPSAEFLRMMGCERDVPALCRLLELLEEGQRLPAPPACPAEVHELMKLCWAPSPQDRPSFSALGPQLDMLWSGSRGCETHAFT
Compound,IC50 [3],IC50 [4],IC50 [5],IC50 [6],IC50 [1],IC50 [2],IC50 [7],IC50 [8]
"[2H]C([2H])([2H])NC(=O)c1nnc(NC(=O)[C@H]2C[C@H]2F)cc1Nc1cccc2c1N(C)Cc1nc(C)nn1-2 (single isomer, unassigned) [Compound 8]",> 1000 nM,> 1000 nM,> 1000 nM,> 1000 nM,< 30 nM,30 to 300 nM,> 1000 nM,–
"[2H]C([2H])([2H])NC(=O)c1cnc(NC(=O)C2CC2)cc1Nc1cccc2c1N(C)Cc1nc(C)nn1-2 [Compound 4, 6-(cyclopropanecarboxamido)-4-((2,5-dimethyl-4,5-dihydro-[1,2,4]triazolo[1,5-a]quinoxalin-6-yl)amino)-N-(methyl-d3)nicotinamide]",> 1000 nM,> 1000 nM,–,> 1000 nM,< 30 nM,< 30 nM,> 1000 nM,300 to 1000 nM
"[2H]C([2H])([2H])NC(=O)c1nnc(Nc2ccc(C)cn2)cc1Nc1cccc2c1N(C)Cc1nc(C)nn1-2 [Compound 11, 4-((2,5-dimethyl-4,5-dihydro-[1,2,4]triazolo[1,5-a]quinoxalin-6-yl)amino)-N-(methyl-d3)-6-((5-methylpyridin-2-yl)amino)pyridazine-3-carboxamide]",> 1000 nM,> 1000 nM,> 1000 nM,> 1000 nM,< 30 nM,< 30 nM,–,–
"[2H]C([2H])([2H])NC(=O)c1cnc(NC(=O)C2CC2)cc1Nc1cccc2c1N(C)Cc1nn(C)nc1-2 [Compound 45, 6-(cyclopropanecarboxamido)-4-((2,5-dimethyl-4,5-dihydro-2H-[1,2,3]triazolo[4,5-c]quinolin-6-yl)amino)-N-(methyl-d3)nicotinamide]",–,> 1000 nM,> 1000 nM,> 1000 nM,< 30 nM,< 30 nM,> 1000 nM,30 to 300 nM
"[2H]C([2H])([2H])NC(=O)c1nnc(NC(=O)C2CC2)cc1Nc1cccc2c1N(C)Cc1nn(C)nc1-2 [Compound 46, 6-(cyclopropanecarboxamido)-4-((2,5-dimethyl-4,5-dihydro-2H-[1,2,3]triazolo[4,5-c]quinolin-6-yl)amino)-N-(methyl-d3)pyridazine-3-carboxamide]",–,> 1000 nM,> 1000 nM,> 1000 nM,< 30 nM,< 30 nM,> 1000 nM,30 to 300 nM

# Further lines, with some results ahead:
IC50 [3],IC50 [4],IC50 [5],IC50 [6],Compound,IC50 [1],IC50 [2],IC50 [7],IC50 [8]
> 1000 nM,> 1000 nM,–,> 1000 nM,"[2H]C([2H])([2H])NC(=O)c1cnc(NC(=O)C2CC2)cc1Nc1cccc2c1N(C([2H])([2H])[2H])Cc1nn(C)nc1-2 [Compound 47, 6-(cyclopropanecarboxamido)-N-(methyl-d3)-4-((2-methyl-5-(methyl-d3)-4,5-dihydro-2H-[1,2,3]triazolo[4,5-c]quinolin-6-yl)amino)nicotinamide]",< 30 nM,< 30 nM,> 1000 nM,30 to 300 nM
> 1000 nM,> 1000 nM,> 1000 nM,> 1000 nM,"[2H]C([2H])([2H])NC(=O)c1cnc(NC(=O)C2CC2)cc1Nc1cccc2c1N(C)CCn1cnnc1-2 [Compound 78, 6-(cyclopropanecarboxamido)-N-(methyl-d3)-4-((7-methyl-6,7-dihydro-5H-benzo[f][1,2,4]triazolo[4,3-d][1,4]diazepin-8-yl)amino)nicotinamide]",30 to 300 nM,> 1000 nM,–,–
> 1000 nM,> 1000 nM,> 1000 nM,–,"[2H]C([2H])([2H])NC(=O)c1nnc(NC(=O)C2CC2)cc1Nc1nccc2c1N(C)Cc1nn(C)nc1-2 [Compound 88, 6-(cyclopropanecarboxamido)-4-((2,5-dimethyl-4,5-dihydro-2H-[1,2,3]triazolo[4,5-c][1,7]naphthyridin-6-yl)amino)-N-(methyl-d3)pyridazine-3-carboxamide]",< 30 nM,< 30 nM,300 to 1000 nM,30 to 300 nM
